# Source: patent US8110585B2, “Bicyclic compound and pharmaceutical use thereof” (Takeda Pharmaceutical Company Limited, priority 2007, dated 2012)
# Tests used:
# [1] = target: T1, human melatonin 1 receptors (human MT1 receptors) (Homo sapiens, UniProt P48039); test: Melatonin receptor binding inhibitory test, 2-[125I] Iodomelatonin, MT1; settings: membrane fraction of CHO-hMelR7 cells, 25° C. for 2.5 hr, read-out: binding inhibitory activity as IC50 value for MT1
# T1 construct: expressed in transfected cells; membrane fraction
# Procedure: (§1) Melatonin Receptor Binding Inhibitory Test
# (1) Preparation of CHO-hMelR7 Cells expressing Human Melatonin 1 Receptors
# A cDNA fragment (SEQ ID NO: 1) encoding full-length of human melatonin 1 receptors (human MT1 receptors) was incorporated into expression vector pAKKO-111H (former name pAKKO1.11H; Biochim Biophys Acta. Vol. 1219(2), pp. 251-259, 1994) to give plasmid pAKKO-hMelR7 for animal cell expression. CHO/dhfr-cells (ATCC, #CRL-9096) were plated at a concentration of 0.3×10^6 cells/dish in a 6 cm culture dish (Becton Dickinson), and cultured under the conditions of 37° C., 5% CO2 for 48 hr. The cells were transfected with pAKKO-hMelR7 plasmid DNA (5 μg) using Cellphect Transfection Kit (Amersham, #27-9268-01). The transfected cells were cultured in Dulbecco's modified Eagle medium (DMEM) (Sigma, #D6046) containing 10% dialyzed FBS (Biowest, #S180D), 1× Non-Essential Amino Acid (Invitrogen, #11140-050) and 50 μg/mL Gentamycin (Invitrogen, #15750-060), and the cell line that stably expressed the plasmid gene was selected. By a receptor binding assay using 2-[^125I] Iodomelatonin, CHO-hMelR7 cell line showing specific binding of 2-[^125I] Iodomelatonin was selected from the obtained clones.
# (§2) (3) Preparation of Cellular Membrane Fraction of CHO Cell (CHO-hMelR7 and CHO-hMT2) Stably Expressing Human MT1 and MT2 Receptors
# (§3) CHO-hMelR7 and CHO-hMT2 cells were plated using Cellfactory (Nunc, #170009) under the conditions of 1×10^8 cells/2000 mL/flask. The cells were grown to confluent, and recovered by the following method. As the medium for CHO-hMelR7 and CHO-hMT2, MEM a containing 10% FBS and penicillin/streptomycin was used. […]
# (§4) The medium was discarded, cells were washed twice with 200 mL of EDTA/PBS(−), 200 mL of EDTA/PBS(−) was further added, and the cells were stood still at room temperature for 20 min until they were released. The cells were recovered in four 50 mL tubes (Becton Dickinson, #352070), and centrifuged at 1,500 rpm for 10 min at 4° C. using a low speed cooling centrifuge (Hitachi, CF7D2). The supernatant was discarded, the pellets in the four tubes were suspended in 10 mL of PBS(−), and combined in one tube (Becton Dickinson, #352070). The mixture was further centrifuged at 1,500 rpm for 10 min at 4° C., and the obtained pellets were suspended in 20 mL of ice-cooled homogenizing buffer [10 mM NaHCO3, 5 mM EDTA, Protease inhibitor Complete (Roche), pH 7.4]. The cell suspension was homogenized 3 times using a polytron homogenizer at 20,000 rpm for 30 sec. The obtained homogenate was centrifuged (2,000 rpm, 10 min, 4° C.) using a low speed cooling centrifuge. The supernatant was recovered in an ultracentrifugation tube and ultracentrifuged (40,000 rpm, 60 min, 4° C.) using an ultracentrifuge (Beckman, L-90K). To the obtained pellets was added a suspending buffer [50 mM Tris-HCl, 1 mM EDTA, Protease inhibitor Complete (Roche), pH 7.4], and the pellets were suspended by pipetting. The protein concentration of this suspension was measured, diluted to 2 mg/mL to give cellular membrane fractions of CHO-hMelR7 and CHO-hMT2 cells. The membrane fractions were dispensed to 1.5 mL tubes (Eppendorf, #0030120.086) by 100 μL, preserved in a freezer (−80° C.) and used for a binding assay. Protein was quantified using BCA protein assay kit (Pierce) with BSA as the standard.
# (§5) (4) Preparation of Membrane Fraction Suspension
# (§6) Immediately before use, the membrane fractions of CHO-hMelR7 and CHO-hMT2 cells of the above-mentioned (3) were diluted 20-fold with assay buffer (50 mM Tris-HCl, pH 7.7).
# (§7) (5) Preparation of 2-[^125I] Iodomelatonin Solution
# (§8) 2-[^125I] Iodomelatonin (#NEX236, PerkinElmer) was diluted with the assay buffer to 400 pM for MT1 and 1 nM for MT2.
# The assay buffer (80 μL) of the above-mentioned (4) was added to each well of a 96-well plate (type 3363, Corning). Then, a test compound (compound solution diluted with DMSO to 200-fold of the final measurement concentration) was added by 2 μL. […]
# [2] = target: T2, human melatonin 2 receptors (human MT2 receptors) (Homo sapiens, UniProt P49286); test: Melatonin receptor binding inhibitory test, 2-[125I] Iodomelatonin, MT2; settings: membrane fraction of CHO-hMT2 cells, 25° C. for 2.5 hr, read-out: binding inhibitory activity as IC50 value for MT2
# T2 construct: expressed in transfected cells; membrane fraction
# T2 sequence (P49286 1-362): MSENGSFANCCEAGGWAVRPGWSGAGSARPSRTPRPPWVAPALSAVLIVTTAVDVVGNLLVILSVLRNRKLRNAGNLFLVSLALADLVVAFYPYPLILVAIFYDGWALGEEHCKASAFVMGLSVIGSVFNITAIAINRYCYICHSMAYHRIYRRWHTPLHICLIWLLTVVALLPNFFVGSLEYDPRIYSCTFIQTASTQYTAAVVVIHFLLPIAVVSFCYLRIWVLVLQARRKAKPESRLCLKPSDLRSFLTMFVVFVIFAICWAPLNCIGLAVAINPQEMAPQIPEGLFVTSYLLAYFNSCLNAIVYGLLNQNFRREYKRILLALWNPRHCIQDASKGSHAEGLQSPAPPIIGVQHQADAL
# Procedure: as §1
# (2) Preparation of CHO-hMT2 Cells Expressing Human Melatonin 2 Receptors
# A cDNA fragment (SEQ ID NO: 2) encoding full-length of human melatonin 2 receptors (human MT2 receptors) was incorporated into expression vector pCMV-Script (Stratagene, #212220) to give the plasmid that was pCMV-human MT2 receptors expression vector for animal cell expression. CHO-K1 cells (ATCC, #CCL-61) were plated at the concentration of 1.5×10^5 cells/cm^2 in a 6 well plate (ASAHI TECHNO GLASS), and cultured under the conditions of 37° C., 5% CO2 for 24 hr. For gene transfection, solution obtained by blending pCMV-human MT2 receptors expression vector (1.9 μg), Lipofectamine Transfection Reagent (Invitrogen, #18324-012) (11.3 μL) and Minimum Essential Medium Eagle (MEM) medium (Sigma, M8042) (93.8 μL), and reacting at room temperature for 20 min was added to the cells per one well. The transfected cells were cultured in MEM medium containing 10% FBS (Life Technology) and 300 μg/mL Geneticin (GIBCO, #10131), and the cell line that stably expressed the plasmid gene was selected. By a receptor binding assay using 2-[^125I] Iodomelatonin, CHO-hMT2 cell line showing specific binding of 2-[^125I] Iodomelatonin was selected from the obtained clones.
# as §2, §3, §4, §5, §6, §7, §8
# The assay buffer (80 μL) of the above-mentioned (4) was added to each well of a 96-well plate (type 3363, Corning). […]
# T1 sequence (P48039 whole entry): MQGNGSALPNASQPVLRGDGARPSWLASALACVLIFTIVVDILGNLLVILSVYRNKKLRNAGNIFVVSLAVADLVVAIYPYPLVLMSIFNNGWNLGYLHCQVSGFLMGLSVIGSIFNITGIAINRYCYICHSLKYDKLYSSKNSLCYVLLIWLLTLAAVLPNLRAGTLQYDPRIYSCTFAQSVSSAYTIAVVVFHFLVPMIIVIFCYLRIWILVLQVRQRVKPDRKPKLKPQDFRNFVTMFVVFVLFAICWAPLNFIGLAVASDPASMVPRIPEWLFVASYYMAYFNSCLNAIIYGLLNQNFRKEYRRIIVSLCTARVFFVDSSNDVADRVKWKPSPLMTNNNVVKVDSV
SMILES,melting point,IC50 [1],IC50 [2]
"CCC(=O)NCC1CC1c1cccc2nn(CC)cc12 (stereo not drawn) [Example 17, N-{[2-(2-ethyl-2H-indazol-4-yl)cyclopropyl]methyl}propanamide]",114 to 115 °C,≤ 100 nM,≤ 100 nM
"CC(=O)NC[C@@H]1C[C@H]1c1cccc2nn(C)c(F)c12 (relative stereo) [Example 18, trans-N-{[2-(3-fluoro-2-methyl-2H-indazol-4-yl)cyclopropyl]methyl}acetamide]",109 to 111 °C,≤ 100 nM,≤ 100 nM
"CCC(=O)NC[C@@H]1C[C@@H]1c1cccc2nn(C)cc12 (relative stereo) [Example 14, cis-N-{[2-(2-methyl-2H-indazol-4-yl)cyclopropyl]methyl}propanamide]",155 to 156 °C,≤ 100 nM,≤ 100 nM
"CC(=O)NCC1CC1c1c(Br)ccc2nn(C)cc12 (stereo not drawn) [Example 29, N-{[2-(5-bromo-2-methyl-2H-indazol-4-yl)cyclopropyl]methyl}acetamide]",135 to 137 °C,≤ 100 nM,≤ 100 nM
"CC(=O)NC[C@@H]1C[C@H]1c1cccc2nn(C)cc12 (relative stereo) [Example 1, trans-N-{[2-(2-methyl-2H-indazol-4-yl)cyclopropyl]methyl}acetamide]",153 to 154 °C,≤ 100 nM,≤ 100 nM
"CC(=O)NCC1CC1c1ccc(Cl)c2nn(C)cc12 (stereo not drawn) [Example 39, N-{[2-(7-chloro-2-methyl-2H-indazol-4-yl)cyclopropyl]methyl}acetamide]",153 to 155 °C,≤ 100 nM,≤ 100 nM
"CCNC(=O)NC[C@@H]1C[C@H]1c1cccn2nc(C)cc12 (relative stereo) [Example 51, trans-N-ethyl-N′-{[2-(2-methylpyrazolo[1,5-a]pyridin-4-yl)cyclopropyl]methyl}urea]",108 to 110 °C,≤ 100 nM,≤ 100 nM
"CC(=O)NC[C@H]1C[C@@H]1c1cccc2nn(C)cc12 [Example 10, N-{[(1S,2S)-2-(2-methyl-2H-indazol-4-yl)cyclopropyl]methyl}acetamide]",145 to 147 °C,≤ 100 nM,≤ 100 nM
"CC(=O)NC[C@@H]1C[C@H]1c1cccc2nn(C)cc12 [Example 11, N-{[(1R,2R)-2-(2-methyl-2H-indazol-4-yl)cyclopropyl]methyl}acetamide]",145 to 147 °C,≤ 100 nM,≤ 100 nM
"Cc1cc2c([C@@H]3C[C@H]3CNC(=O)C3CC3)cccn2n1 (relative stereo) [Example 47, trans-N-{[2-(2-methylpyrazolo[1,5-a]pyridin-4-yl)cyclopropyl]methyl}cyclopropanecarboxamide]",133 to 135 °C,≤ 100 nM,≤ 100 nM
"CCC(=O)NCC1CC1c1c(Br)ccc2nn(C)cc12 (stereo not drawn) [Example 30, N-{[2-(5-bromo-2-methyl-2H-indazol-4-yl)cyclopropyl]methyl}propanamide]",119 to 121 °C,≤ 100 nM,≤ 100 nM
"CCC(=O)NCC1CC1c1c(Cl)ccc2nn(C)cc12 (stereo not drawn) [Example 28, N-{[2-(5-chloro-2-methyl-2H-indazol-4-yl)cyclopropyl]methyl}propanamide]",152 to 153 °C,≤ 100 nM,≤ 100 nM
"Cc1cc2c([C@@H]3C[C@H]3CNC(=O)C(F)(F)F)cccn2n1 (relative stereo) [Example 46, trans-2,2,2-trifluoro-N-{[2-(2-methylpyrazolo[1,5-a]pyridin-4-yl)cyclopropyl]methyl}acetamide]",136 to 138 °C,≤ 100 nM,≤ 100 nM
"CC(=O)NC[C@@H]1C[C@H]1c1cccn2nc(C)cc12 (relative stereo) [Example 5, trans-N-{[2-(2-methylpyrazolo[1,5-a]pyridin-4-yl)cyclopropyl]methyl}acetamide]",114 to 115 °C,≤ 100 nM,≤ 100 nM
